≈ marks a conversion by molar mass, not a printed value. Read-outs that look alike come from different tables or passages of the source. Where a SMILES comes first, the peptide text is derived from it. [ ]: non-standard residue; d: D form. Gly(N(CH2)2(3-indolyl)) = O=C(O)CNCCc1c[nH]c2ccccc12; Gly(N-CH2CH2-imidazol-4-yl) = O=C(O)CNCCc1c[nH]cn1; Nspe = C[C@H](NCC(=O)O)c1ccccc1; Nphe = O=C(O)CNCc1ccccc1; Nlys = NCCCCNCC(=O)O

What is called HC50 is the concentration that lyses half of the red blood cells. Read a high HC50 as weaker haemolysis.

Data set [1] deals with S. aureus ATCC 25923. The method, boiled down:
(§1)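 Cation-adjusted MHB2 cultures (18 h, subcultured 4 h) adjusted to 2×10^5–5×10^5 CFU/mL in medium with 0.02% BSA and 0.001% acetic acid.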

In data set [2] the test system is E. coli ATCC25922. The method, boiled down: as §1
The subject of data set [3] is red blood cells. Kind of data set: Hemolysis assay. It counts as cell-based, Sprague-Dawley mouse. The method in brief:
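Peptoid is mixed with 10% (v/v) PBS-washed erythrocytes (male Sprague-Dawley […], 13 weeks) and held 1 h at 37 °C. Hemolysis is calculated from 540 nm absorbance of the supernatant, with PBS as 0% and Triton X-100 as 100%.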

Setting [4] is: Tables 11-13, 24 hours at 37° C., maximum concentration 25 μM.

As for `C[C@@H](c1ccccc1)N(CC(=O)N(CCCCN)CC(=O)N(CCCCN)CC(=O)N(CC(=O)N(CC(=O)N(CCCCN)CC(=O)N(CC(=O)N(CC(=O)N(CCCCN)CC(N)=O)[C@@H](C)c1ccccc1)[C@@H](C)c1ccccc1)[C@@H](C)c1ccccc1)[C@@H](C)c1ccccc1)C(=O)CN(CCCCN)C(=O)CN(CCc1c[nH]c2ccccc12)C(=O)CNCCc1c[nH]c2ccccc12` [Peptoid 38] (H-[Gly(N(CH2)2(3-indolyl))][Gly(N(CH2)2(3-indolyl))][Nlys][Nspe][Nlys][Nlys][Nspe][Nspe][Nlys][Nspe][Nspe][Nlys]-NH2), the “MIC S. aureus ATCC 25923” value in data set [1] (setting [4]) was determined as 6.3 µM (≈ 11.7 µg/mL). In addition, the “MIC E. coli ATCC25922” value in data set [2] (setting [4]) was determined as 12.5 µM (≈ 23.3 µg/mL). Also, in data set [3], the HC10 is given as >100/>100 μM, the HC50 is on record as >100/>100 μM and the “Hmax (100 μM)” value is listed as 5.9 ± 0.5%.
For the molecule `C[C@@H](c1ccccc1)N(CC(=O)N(CCCCN)CC(=O)N(CC(=O)N(CC(=O)N(CCCCN)CC(=O)N(CCCCN)CC(=O)N(CC(=O)N(CCCCN)CC(=O)N(CCc1c[nH]c2ccccc12)CC(=O)N(CCc1c[nH]c2ccccc12)CC(N)=O)Cc1ccccc1)[C@@H](C)c1ccccc1)[C@@H](C)c1ccccc1)C(=O)CN(C(=O)CNCCCCN)[C@@H](C)c1ccccc1` [Peptoid 39] (H-[Nlys][Nspe][Nspe][Nlys][Nspe][Nspe][Nlys][Nlys][Nphe][Nlys][Gly(N(CH2)2(3-indolyl))][Gly(N(CH2)2(3-indolyl))]-NH2), the “MIC S. aureus ATCC 25923” value in data set [1] (setting [4]) turned out to be 6.3 µM (≈ 11.7 µg/mL). Further, in data set [2] (setting [4]), the “MIC E. coli ATCC25922” value came to 25 µM (≈ 46.3 µg/mL). In data set [3], the HC10 is 100/>100 μM, the HC50 is 100/>100 μM and the “Hmax (100 μM)” value was 10.2 ± 0.3%.
Regarding `C[C@@H](c1ccccc1)N(CC(=O)N(CCCCN)CC(=O)N(CCc1c[nH]c2ccccc12)CC(=O)N(CCc1c[nH]c2ccccc12)CC(N)=O)C(=O)CN(CCCCN)C(=O)CN(CCCCN)C(=O)CN(Cc1ccccc1)C(=O)CN(Cc1ccccc1)C(=O)CN(CCCCN)C(=O)CN(C(=O)CN(C(=O)CNCCCCN)[C@@H](C)c1ccccc1)[C@@H](C)c1ccccc1` [Peptoid 40] (H-[Nlys][Nspe][Nspe][Nlys][Nphe][Nphe][Nlys][Nlys][Nspe][Nlys][Gly(N(CH2)2(3-indolyl))][Gly(N(CH2)2(3-indolyl))]-NH2), the “MIC S. aureus ATCC 25923” value in data set [1] (setting [4]) was 12.5 µM (≈ 23 µg/mL). Besides, in data set [2] (setting [4]), the “MIC E. coli ATCC25922” value came to 12.5 µM (≈ 23 µg/mL). For the same molecule, in data set [3], the HC10 is on record as >100/>100 μM, the HC50 was >100/>100 μM and the “Hmax (100 μM)” value was found to be 8.9 ± 0.2%.
Turning to `C[C@@H](c1ccccc1)N(CC(=O)N(CCCCN)CC(=O)N(CCc1c[nH]c2ccccc12)CC(=O)N(CCc1c[nH]c2ccccc12)CC(N)=O)C(=O)CN(CCCCN)C(=O)CN(CCCCN)C(=O)CN(C(=O)CN(C(=O)CN(CCCCN)C(=O)CN(Cc1ccccc1)C(=O)CN(Cc1ccccc1)C(=O)CNCCCCN)[C@@H](C)c1ccccc1)[C@@H](C)c1ccccc1` [Peptoid 41] (H-[Nlys][Nphe][Nphe][Nlys][Nspe][Nspe][Nlys][Nlys][Nspe][Nlys][Gly(N(CH2)2(3-indolyl))][Gly(N(CH2)2(3-indolyl))]-NH2), in data set [1] (setting [4]), the “MIC S. aureus ATCC 25923” value amounted to 6.3 µM (≈ 11.6 µg/mL). The “MIC E. coli ATCC25922” value in data set [2] (setting [4]) was found to be 25 µM (≈ 45.9 µg/mL). Besides, in data set [3], the HC10 was >100/>100 μM, the HC50 was >100/>100 μM and the “Hmax (100 μM)” value stood at 7.1 ± 0.1%.
For the molecule `C[C@@H](c1ccccc1)N(CC(=O)N(CCCCN)CC(=O)N(CC(=O)N(CC(=O)N(CCCCN)CC(=O)N(CC(=O)N(CC(=O)N(CCCCN)CC(=O)N(CC(=O)N(CC(N)=O)Cc1ccccc1)Cc1ccccc1)[C@@H](C)c1ccccc1)[C@@H](C)c1ccccc1)[C@@H](C)c1ccccc1)[C@@H](C)c1ccccc1)C(=O)CN(C(=O)CNCCCCN)[C@@H](C)c1ccccc1` [Peptoid 44] (H-[Nlys][Nspe][Nspe][Nlys][Nspe][Nspe][Nlys][Nspe][Nspe][Nlys][Nphe][Nphe]-NH2), the “MIC S. aureus ATCC 25923” value in data set [1] (setting [4]) worked out at 1.6 µM (≈ 2.87 µg/mL). The “MIC E. coli ATCC25922” value in data set [2] (setting [4]) is 6.3 µM (≈ 11.3 µg/mL). In data set [3], the HC10 was found to be 6.3 µM, the HC50 was 28.6 µM and the “Hmax (100 μM)” value turned out to be 97.9 ± 3.7%.
`C[C@@H](c1ccccc1)N(CC(=O)N(CCCCN)CC(=O)N(CC(=O)N(CC(N)=O)Cc1ccccc1)Cc1ccccc1)C(=O)CN(CCCCN)C(=O)CN(CCCCN)C(=O)CN(C(=O)CN(C(=O)CN(CCCCN)C(=O)CN(C(=O)CN(C(=O)CNCCCCN)[C@@H](C)c1ccccc1)[C@@H](C)c1ccccc1)[C@@H](C)c1ccccc1)[C@@H](C)c1ccccc1` [Peptoid 45] (H-[Nlys][Nspe][Nspe][Nlys][Nspe][Nspe][Nlys][Nlys][Nspe][Nlys][Nphe][Nphe]-NH2): the “MIC S. aureus ATCC 25923” value in data set [1] (setting [4]) amounted to 25 µM (≈ 44 µg/mL). Further, in data set [2] (setting [4]), the “MIC E. coli ATCC25922” value was >25 µM. In data set [3], the HC10 was >100/>100 μM, the HC50 is on record as >100/>100 μM and the “Hmax (100 μM)” value is 4.5 ± 0.2%.
`C[C@@H](c1ccccc1)N(CC(N)=O)C(=O)CN(C(=O)CN(CCCCN)C(=O)CN(C(=O)CN(C(=O)CN(CCCCN)C(=O)CN(C(=O)CN(C(=O)CN(CCCCN)C(=O)CN(Cc1ccccc1)C(=O)CN(Cc1ccccc1)C(=O)CNCCCCN)[C@@H](C)c1ccccc1)[C@@H](C)c1ccccc1)[C@@H](C)c1ccccc1)[C@@H](C)c1ccccc1)[C@@H](C)c1ccccc1` [Peptoid 46]: the “MIC S. aureus ATCC 25923” value in data set [1] (setting [4]) is 0.8 µM (≈ 1.43 µg/mL). Further, the “MIC E. coli ATCC25922” value in data set [2] (setting [4]) was determined as 6.3 µM (≈ 11.3 µg/mL). Moreover, in data set [3], the HC10 amounted to 6.9 µM, the HC50 was found to be 36.5 µM and the “Hmax (100 μM)” value amounted to 90.8 ± 2.7%.
In the case of `C[C@@H](c1ccccc1)N(CC(N)=O)C(=O)CN(CCCCN)C(=O)CN(CCCCN)C(=O)CN(C(=O)CN(C(=O)CN(CCCCN)C(=O)CN(C(=O)CN(C(=O)CN(CCCCN)C(=O)CN(Cc1ccccc1)C(=O)CN(Cc1ccccc1)C(=O)CNCCCCN)[C@@H](C)c1ccccc1)[C@@H](C)c1ccccc1)[C@@H](C)c1ccccc1)[C@@H](C)c1ccccc1` [Peptoid 47], the “MIC S. aureus ATCC 25923” value in data set [1] (setting [4]) stood at 12.5 µM (≈ 22 µg/mL). Further, the “MIC E. coli ATCC25922” value in data set [2] (setting [4]) was found to be 25 µM (≈ 44 µg/mL). Further, in data set [3], the HC10 was >100/>100 μM, the HC50 was >100/>100 μM and the “Hmax (100 μM)” value turned out to be 4.8 ± 0.2%.
Regarding `C[C@H](NCC(=O)N(CCCCN)CC(=O)N(CC(=O)N(CC(=O)N(CCCCN)CC(=O)N(CC(=O)N(CC(=O)N(CCCCN)CC(=O)N(CC(=O)N(CC(=O)N(CCCCN)CC(=O)N(CC(N)=O)[C@@H](C)c1ccccc1)[C@@H](C)c1ccccc1)[C@@H](C)c1ccccc1)[C@@H](C)c1ccccc1)[C@@H](C)c1ccccc1)[C@@H](C)c1ccccc1)[C@@H](C)c1ccccc1)c1ccccc1` [Peptoid 48] (H-[Nspe][Nlys][Nspe][Nspe][Nlys][Nspe][Nspe][Nlys][Nspe][Nspe][Nlys][Nspe]-NH2), the “MIC S. aureus ATCC 25923” value in data set [1] (setting [4]) was 3.1 µM (≈ 5.64 µg/mL). In addition, in data set [2] (setting [4]), the “MIC E. coli ATCC25922” value came to 12.5 µM (≈ 22.7 µg/mL). Moreover, in data set [3], the HC10 was 25.7 µM, the HC50 was 48.4 µM and the “Hmax (100 μM)” value is on record as 79.9 ± 3.6%.
Take `C[C@@H](c1ccccc1)N(CC(N)=O)C(=O)CN(CCCCN)C(=O)CN(CCCCN)C(=O)CN(C(=O)CN(C(=O)CN(CCCCN)C(=O)CN(C(=O)CN(C(=O)CN(CCCCN)C(=O)CN(CCc1c[nH]c2ccccc12)C(=O)CN(CCc1c[nH]c2ccccc12)C(=O)CNCCc1c[nH]cn1)[C@@H](C)c1ccccc1)[C@@H](C)c1ccccc1)[C@@H](C)c1ccccc1)[C@@H](C)c1ccccc1` [Peptoid 72] (H-[Gly(N-CH2CH2-imidazol-4-yl)][Gly(N(CH2)2(3-indolyl))][Gly(N(CH2)2(3-indolyl))][Nlys][Nspe][Nspe][Nlys][Nspe][Nspe][Nlys][Nlys][Nspe]-NH2): the “MIC S. aureus ATCC 25923” value in data set [1] (ATCC 25923) came out at 6.3 µM (≈ 11.9 µg/mL). Further, in data set [2] (ATCC25922), the “MIC E. coli ATCC25922” value worked out at 6.3 µM (≈ 11.9 µg/mL). Besides, in data set [3], the HD10 is given as 88.9, the HD50 is on record as > 100.0 and the “Hmax (100 μM)” value stood at 11.8 ± 1.1.
Regarding `C[C@@H](c1ccccc1)N(CC(N)=O)C(=O)CN(CCCCN)C(=O)CN(CCCCN)C(=O)CN(C(=O)CN(C(=O)CN(CCCCN)C(=O)CN(C(=O)CN(C(=O)CN(CCc1c[nH]cn1)C(=O)CN(CCc1c[nH]c2ccccc12)C(=O)CN(CCc1c[nH]c2ccccc12)C(=O)CNCCCCN)[C@@H](C)c1ccccc1)[C@@H](C)c1ccccc1)[C@@H](C)c1ccccc1)[C@@H](C)c1ccccc1` [Peptoid 73] (H-[Nlys][Gly(N(CH2)2(3-indolyl))][Gly(N(CH2)2(3-indolyl))][Gly(N-CH2CH2-imidazol-4-yl)][Nspe][Nspe][Nlys][Nspe][Nspe][Nlys][Nlys][Nspe]-NH2), in data set [1] (ATCC 25923), the “MIC S. aureus ATCC 25923” value came to 3.1 µM (≈ 5.85 µg/mL). For the same molecule, the “MIC E. coli ATCC25922” value in data set [2] (ATCC25922) is 6.3 µM (≈ 11.9 µg/mL). Besides, in data set [3], the HD10 is >100.0/>100.0, the HD50 was >100.0/>100.0 and the “Hmax (100 μM)” value was determined as 10.0 ± 0.3.
As for `C[C@@H](c1ccccc1)N(CC(N)=O)C(=O)CN(CCCCN)C(=O)CN(CCCCN)C(=O)CN(C(=O)CN(C(=O)CN(CCc1c[nH]cn1)C(=O)CN(C(=O)CN(C(=O)CN(CCCCN)C(=O)CN(CCc1c[nH]c2ccccc12)C(=O)CN(CCc1c[nH]c2ccccc12)C(=O)CNCCCCN)[C@@H](C)c1ccccc1)[C@@H](C)c1ccccc1)[C@@H](C)c1ccccc1)[C@@H](C)c1ccccc1` [Peptoid 74] (H-[Nlys][Gly(N(CH2)2(3-indolyl))][Gly(N(CH2)2(3-indolyl))][Nlys][Nspe][Nspe][Gly(N-CH2CH2-imidazol-4-yl)][Nspe][Nspe][Nlys][Nlys][Nspe]-NH2), in data set [1] (ATCC 25923), the “MIC S. aureus ATCC 25923” value worked out at 3.1 µM (≈ 5.85 µg/mL). In addition, the “MIC E. coli ATCC25922” value in data set [2] (ATCC25922) is 6.3 µM (≈ 11.9 µg/mL). Further, in data set [3], the HD10 is 81.7, the HD50 is > 100.0 and the “Hmax (100 μM)” value was found to be 14.2 ± 0.3.

The values are drawn from patent US20240226228A1, “ANTIMICROBIAL PEPTOID HAVING IMPROVED SELECTIVITY AND ANTIMICROBIAL COMPOSITION COMPRISING SAME” (priority 2021, published 2024).
